Measured values published in patent US20210196714A1, “COMPOSITIONS AND METHODS FOR TREATING DISORDERS CHARACTERIZED WITH ABERRANT RAS/MAPK SIGNALING” (Duke University, priority 2018, published 2021).
“Also recorded” adds a separate entry of the source.

Columns and labels:
[1] = tested on: kmt2d CRISPR mosaic mutants (F0); assay: CE defects in kmt2d-CRISPR F0 mutants; type: in vivo, zebrafish; settings: kmt2d-CRISPR F0, 100 nM; listed as dmDf
From the text: Prior and current genetic zebrafish models of KS focused on the newly discovered rap1a/rap1b genes. However, from the perspective of clinical utility, dmDf should be efficacious in kmt2d mutants, since loss of function mutations of the human ortholog account for as much as 75% of KS (see, Ng, S. B. et al. Nat Genet 42, 790-3 (2010); Li, Y. et al. Hum Genet 130, 715-24 (2011); Lu, J., Mo, G., Ling, Y. & Ji, L. Mol Med Rep 14, 3641-5 (2016); Miyake, N. et al. Am J Med Genet A 161a, 2234-43 (2013)). Therefore, experiments supplemented the testing tools by creating a kmt2d CRISPR/Cas9 mutant. A guide RNA targeting exon 4 of kmt2d induced efficient (˜99%) Cas9-mediated genome editing (FIG. 8). […]
For convergence and extension (CE) phenotyping, embryos were scored as described (see, Leitch, C. C. et al. Nat Genet 40, 443-8 (2008)) at the 8-10 somite stage, and images were captured using an AZ100 microscope and NIS Elements software (Nikon). […] The distance between Meckel's (MK) and ceratohyal (CH) cartilages was measured on ventral bright field images with Image J (NIH). […] Fluorescence signal on embryo heads was imaged with the Nikon AZ100 microscope and DS-Qi1MC digital camera using […] Z-stacks to generate extended depth of focus images. Cell numbers were quantified using the ImageJ ICTN plugin (NIH). […]

ERK2 = ERK2 (Homo sapiens, UniProt P28482); settings: see WO 2002064586; cited from earlier work
ERK2, sequence (P28482 whole entry, species assumed): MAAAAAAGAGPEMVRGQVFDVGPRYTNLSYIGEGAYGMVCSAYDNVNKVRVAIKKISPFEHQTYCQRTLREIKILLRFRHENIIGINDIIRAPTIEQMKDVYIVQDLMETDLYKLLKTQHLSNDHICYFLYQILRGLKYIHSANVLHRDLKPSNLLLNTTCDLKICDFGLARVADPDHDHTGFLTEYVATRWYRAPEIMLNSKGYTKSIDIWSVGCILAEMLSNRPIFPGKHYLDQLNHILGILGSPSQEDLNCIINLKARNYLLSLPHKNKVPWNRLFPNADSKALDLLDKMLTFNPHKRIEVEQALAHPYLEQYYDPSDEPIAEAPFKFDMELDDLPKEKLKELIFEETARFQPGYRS

SMILES | CE defects [1] | ERK2 inhibitor potency (ERK2)
CC(C)c1nc(-c2cccc(NS(=O)(=O)c3c(F)cccc3F)c2F)c(-c2ccnc(N)n2)s1 [Compound 8, desmethyl-Dabrafenib] | ameliorates the CE defects; also recorded: ameliorated significantly | 
CC[C@@H](CO)Nc1ncc(C)c(-c2c[nH]c(C(=O)N[C@H](CO)c3cccc(Cl)c3)c2)n1 [Compound 2, N-((S)-1-(3-chlorophenyl)-2-hydroxyethyl)-4-(2-(((S)-1-hydroxybutan-2-yl)amino)-5-methylpyrimidin-4-yl)-1H-pyrrole-2-carboxamide] |  | potent
